Measured values: publication PMC12592400, “A unique inhibitor conformation selectively targets the DNA polymerase PolC of Gram-positive priority pathogens” (Nature Communications, 2025)
Values joined by “and” are separate entries in the source; they are usually repeats but may differ in a detail not shown here. Equal values may be shown once.

Legend:
[1] = target: T1, E. faecium PolC^F1276S (exonuclease-inactivated) (Enterococcus faecium, UniProt A0A9X4B319, D429A/E431A/F1274S); assay: Real-time DNA primer extension assay; format: biochemical; details: for rate of activity (slope of fluorescence intensity change over time): Fig. 4b source data, F1267S
T1 sequence (A0A9X4B319 1-1450 D429A/E431A/F1274S): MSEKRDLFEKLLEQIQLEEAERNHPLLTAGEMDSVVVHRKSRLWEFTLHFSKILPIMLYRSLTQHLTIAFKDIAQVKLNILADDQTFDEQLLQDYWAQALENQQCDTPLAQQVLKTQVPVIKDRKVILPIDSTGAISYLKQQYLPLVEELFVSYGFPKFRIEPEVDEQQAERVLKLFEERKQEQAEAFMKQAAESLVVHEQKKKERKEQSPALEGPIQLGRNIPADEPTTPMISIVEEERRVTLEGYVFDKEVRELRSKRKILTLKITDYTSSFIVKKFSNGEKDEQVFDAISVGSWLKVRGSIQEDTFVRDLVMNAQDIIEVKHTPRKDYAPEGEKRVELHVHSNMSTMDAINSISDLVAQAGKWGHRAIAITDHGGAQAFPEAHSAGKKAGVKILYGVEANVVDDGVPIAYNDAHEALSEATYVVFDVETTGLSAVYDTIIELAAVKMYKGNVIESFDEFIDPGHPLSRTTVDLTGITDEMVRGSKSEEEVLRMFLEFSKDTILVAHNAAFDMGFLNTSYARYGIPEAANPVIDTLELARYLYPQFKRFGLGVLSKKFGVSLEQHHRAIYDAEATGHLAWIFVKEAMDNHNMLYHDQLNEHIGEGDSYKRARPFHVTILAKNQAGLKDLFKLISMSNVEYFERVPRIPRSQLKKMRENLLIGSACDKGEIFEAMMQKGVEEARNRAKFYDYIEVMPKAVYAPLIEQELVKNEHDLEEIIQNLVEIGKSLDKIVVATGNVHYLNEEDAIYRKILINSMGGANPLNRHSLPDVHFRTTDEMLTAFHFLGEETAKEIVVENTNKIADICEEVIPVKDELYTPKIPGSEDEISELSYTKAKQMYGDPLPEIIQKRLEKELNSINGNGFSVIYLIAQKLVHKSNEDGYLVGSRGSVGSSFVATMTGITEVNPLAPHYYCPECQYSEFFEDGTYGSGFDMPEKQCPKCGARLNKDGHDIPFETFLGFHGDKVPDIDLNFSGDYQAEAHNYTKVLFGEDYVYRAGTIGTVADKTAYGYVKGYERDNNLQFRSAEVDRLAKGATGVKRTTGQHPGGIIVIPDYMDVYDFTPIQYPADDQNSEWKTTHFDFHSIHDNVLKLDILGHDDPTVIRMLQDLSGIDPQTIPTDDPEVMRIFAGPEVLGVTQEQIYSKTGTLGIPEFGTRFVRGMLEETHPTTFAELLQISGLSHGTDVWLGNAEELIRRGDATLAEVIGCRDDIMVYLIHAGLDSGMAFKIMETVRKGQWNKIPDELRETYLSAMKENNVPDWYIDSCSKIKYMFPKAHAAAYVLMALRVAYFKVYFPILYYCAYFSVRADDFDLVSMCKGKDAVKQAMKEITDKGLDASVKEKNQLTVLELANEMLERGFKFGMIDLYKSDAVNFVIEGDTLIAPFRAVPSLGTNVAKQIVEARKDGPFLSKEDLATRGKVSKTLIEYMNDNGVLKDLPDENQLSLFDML
Source text: (§1) The genes for PolC (locus_tag: MIBBHLJO_01574) and DnaE (locus_tag: MIBBHLJO_00911) from E. faecium ATCC 700221 were codon-optimized for expression in E. coli and synthesized in vector pET28b by Twist Bioscience (San Francisco, CA). Expression constructs for variant PolC proteins were created with QuikChange Site-Directed Mutagenesis (Agilent) with oligonucleotides listed in Supplementary Table 3. F1276L, F1276S, and A1281T were introduced to assess the effect of these mutations on inhibition by ACX compounds. Mutations D972A and D974A were introduced to inactivate the polymerase activity and mutations D431A and E433A were introduced to inactivate the exonuclease activity (Fig. 1d, Supplementary Fig. 1).
(§2) Polymerase activity was monitored in real-time[31],[32] with a 42-nt long 5’ carboxyfluorescein-labelled DNA oligonucleotide template strand (DNASP8_42) annealed to a 30-nt primer oligonucleotide (oMU014). Polymerase activity in this assay is monitored by measuring fluorescence quenching of the labelled DNA template as a result of primer extension by PolC (for details see Supplementary Fig. 1b, c). Both primers were HPLC purified. Primer extension assays were performed in Reaction Buffer (see Gel-based polymerase and exonuclease assays) supplemented with 0.5 mg/mL BSA, 0.05% Tween20 and 25 uM of each dNTP (SRB) in 384-well Black Round Bottom plates (Corning 4514). The polymerase was diluted in the SRB and incubated for at least 5 min in the presence of inhibitor or solvent, with a final solvent concentration of 1%. The reaction was initiated by the addition of an equal volume of DNA substrate in SRB as described below. Fluorescence emission data was collected with a BMG Labtech PHERAstar FSX reader for 30 min at room temperature.
(§3) Compounds were dispensed with an Echo acoustic liquid handler (Beckman Coulter). All compounds were dissolved to 1 mM and 10 mM stocks in 100% DMSO and transferred to Echo LDV or PP source plates (Labcyte, Inc., CA), then dispensed to 384-well plates with a Labcyte Echo550 or Echo650 acoustic dispenser at volumes of 2.5 to 100 nL per well. […] A Mantis microfluidic liquid dispenser (Formulatrix) was used to dispense 5 µL polymerase and 5 µL substrate DNA (individually diluted in SRB) per well. […] The final concentration of DNA was 70 nM.
(§4) Data were analysed and standard error of the means (SEM) determined in Prism 8.4.2 and 10.2.3 (GraphPad). Raw time-course polymerase activity was plotted against time, with SEM of triplicates determined. The rate of activity (represented by signal quenching) was determined during the first 8 min (linear stage) by calculating the slope of fluorescence intensity change (converted to a positive value) over time (in seconds). The slopes were then normalized to percentage activity (%); per ‘replicate range’, 100% activity was defined as polymerase activity in the absence of inhibitor (polymerase control), and 0% activity was determined in the absence of polymerase (DNA signal; negative control). The SEM was determined between ‘replicate ranges’. The IC50 was determined using the dose-response (inhibition) nonlinear regression ‘[Inhibitor] vs. response (three parameters)’ without constraints.

[2] = test system: E. faecium PolC^F1276S (exonuclease-inactivated); assay: Real-time DNA primer extension assay; format: biochemical, Enterococcus faecium; details: versus wild-type PolC
Source text: as §1, §2, §3, §4

Row | Compound | IC50 [1] [µM] | rate of activity (slope of fluorescence intensity change over time) ([1]; inhibitor 1 uM) | rate of activity (slope of fluorescence intensity change over time) ([1]; inhibitor 1.75 uM) | rate of activity (slope of fluorescence intensity change over time) ([1]; inhibitor 2.5 uM) | rate of activity (slope of fluorescence intensity change over time) ([1]; inhibitor 4 uM) | rate of activity (slope of fluorescence intensity change over time) ([1]; inhibitor 5.75 uM) | rate of activity (slope of fluorescence intensity change over time) ([1]; inhibitor 8.8 uM) | rate of activity (slope of fluorescence intensity change over time) ([1]; inhibitor 20 uM) | rate of activity (slope of fluorescence intensity change over time) ([1]; inhibitor 30 uM) | rate of activity (slope of fluorescence intensity change over time) ([1]; inhibitor 45 uM) | rate of activity (slope of fluorescence intensity change over time) ([1]; inhibitor 67.5 uM) | rate of activity (slope of fluorescence intensity change over time) ([1]; inhibitor 100 uM) | rate of activity (slope of fluorescence intensity change over time) ([1]; inhibitor 225 uM) | increase in IC50 by the F1276S mutation [2] [fold] | rate of activity (slope of fluorescence intensity change over time) ([1]; inhibitor 150 uM)
1 | O=c1[nH]c(NCc2ccc3c(c2)OC(F)(F)O3)nc2c(F)nn(CCO)c12 [ACX-801, 5-(((2,2-difluorobenzo[d][1,3]dioxol-5-yl)methyl)amino)-3-fluoro-1-(2-hydroxyethyl)-1,6-dihydro-7H-pyrazolo[4,3-d]pyrimidin-7-one] | 101 ± 8.8 | 29.5 and 29.8 and 30.7 | 30.8 and 30.2 and 30.4 | 31.6 and 32.7 and 27.4 | 31.4 and 30.5 and 33.1 | 30.4 and 30.7 and 31.4 | 31.4 and 31.3 and 30.8 | 28.6 and 27.8 | 22.8 and 24.4 and 24.1 | 18.0 and 19.1 | 14.6 and 12.2 | 10.5 and 12.0 and 13.4 | 6.1 and 6.2 and 5.0 | > 8 | 
2 | O=c1[nH]c(NCc2ccc(Cl)c(Cl)c2)nc2ncn(CCN3CCOCC3)c12 [IBZ, N^2-(3,4-dichlorobenzyl)-7-(2-[1-morpholinyl]ethyl)guanine] | > 225 | 29.0 and 29.8 and 31.7 | 30.0 and 28.9 and 29.5 | 26.9 and 26.5 and 27.3 | 31.2 and 29.8 and 29.5 | 28.2 | 25.6 and 30.1 and 32.4 | 30.9 and 27.1 and 31.2 | 29.0 and 27.4 | 31.6 and 29.8 and 28.0 | 29.0 and 32.1 and 30.5 | 28.6 and 28.2 | 28.0 and 22.8 | > 48 | 27.2 and 24.9 and 25.9
